Tests used:
[1] = tested on: allergen-induced passive cutaneous anaphylaxis; assay: Passive cutaneous anaphylaxis in mice; format: in vivo; details: oral gavage, doses less than 20 mg/kg
Description: The activity of representative compounds on passive cutaneous anaphylaxis in mice was evaluated according to the procedures disclosed by Ovary, J Immunol 81, 355-357, 1958 and Halpern et al., Br J Pharmacol Chemother 20, 389-398, 1963, both of which are incorporated herein by reference in their entirety. To induce a passive cutaneous anaphylaxis, mice underwent intradermal ear inoculation on their right ear with 25 ng in 20 μL of anti-DNP-IgE. The left ears were untreated and served as negative controls. Twenty-four hours after inoculation, all mice were administered test compound by oral gavage (PO). Sixty minutes after oral administration, mice were given a tail vein injection of 2% Evan's blue (0.2 μm filtered, in 200 μL saline) followed by a second tail IV injection of 100 μg DNP-HSA (in 200 μL). Sixty minutes following the DNP-HSA injection, mice were euthanized using CO2 inhalation. Subsequently, ear biopsies were performed by taking four millimetre punches from both ears, which then underwent Evan's Blue extraction using formamide incubation in 96 well plates. Eighty μL of eluents were transferred to flat-bottom 96-well plates and absorbance read using SpectraMax M5 spectrophotometer (Molecular Devices, Sunnyvale, Calif., USA) at 620 nm. Background readings from all samples were taken at 740 nm and subtracted from the 620 nm readings. Data were reported as OD. […] Scoring in Table 4 is expressed as follows: + (1-30% inhibition); ++ (31-50% inhibition); +++ (>50% inhibition).

[2] = biological target: T1, His-hSHIP1 enzyme (Homo sapiens, UniProt Q92835); assay: His-hSHIP1 phosphatase activity assay (IP4 substrate, Biomol Green); format: biochemical; details: percentage increase relative to background; concentrations ≦300 μM
T1 sequence (Q92835 1-1189): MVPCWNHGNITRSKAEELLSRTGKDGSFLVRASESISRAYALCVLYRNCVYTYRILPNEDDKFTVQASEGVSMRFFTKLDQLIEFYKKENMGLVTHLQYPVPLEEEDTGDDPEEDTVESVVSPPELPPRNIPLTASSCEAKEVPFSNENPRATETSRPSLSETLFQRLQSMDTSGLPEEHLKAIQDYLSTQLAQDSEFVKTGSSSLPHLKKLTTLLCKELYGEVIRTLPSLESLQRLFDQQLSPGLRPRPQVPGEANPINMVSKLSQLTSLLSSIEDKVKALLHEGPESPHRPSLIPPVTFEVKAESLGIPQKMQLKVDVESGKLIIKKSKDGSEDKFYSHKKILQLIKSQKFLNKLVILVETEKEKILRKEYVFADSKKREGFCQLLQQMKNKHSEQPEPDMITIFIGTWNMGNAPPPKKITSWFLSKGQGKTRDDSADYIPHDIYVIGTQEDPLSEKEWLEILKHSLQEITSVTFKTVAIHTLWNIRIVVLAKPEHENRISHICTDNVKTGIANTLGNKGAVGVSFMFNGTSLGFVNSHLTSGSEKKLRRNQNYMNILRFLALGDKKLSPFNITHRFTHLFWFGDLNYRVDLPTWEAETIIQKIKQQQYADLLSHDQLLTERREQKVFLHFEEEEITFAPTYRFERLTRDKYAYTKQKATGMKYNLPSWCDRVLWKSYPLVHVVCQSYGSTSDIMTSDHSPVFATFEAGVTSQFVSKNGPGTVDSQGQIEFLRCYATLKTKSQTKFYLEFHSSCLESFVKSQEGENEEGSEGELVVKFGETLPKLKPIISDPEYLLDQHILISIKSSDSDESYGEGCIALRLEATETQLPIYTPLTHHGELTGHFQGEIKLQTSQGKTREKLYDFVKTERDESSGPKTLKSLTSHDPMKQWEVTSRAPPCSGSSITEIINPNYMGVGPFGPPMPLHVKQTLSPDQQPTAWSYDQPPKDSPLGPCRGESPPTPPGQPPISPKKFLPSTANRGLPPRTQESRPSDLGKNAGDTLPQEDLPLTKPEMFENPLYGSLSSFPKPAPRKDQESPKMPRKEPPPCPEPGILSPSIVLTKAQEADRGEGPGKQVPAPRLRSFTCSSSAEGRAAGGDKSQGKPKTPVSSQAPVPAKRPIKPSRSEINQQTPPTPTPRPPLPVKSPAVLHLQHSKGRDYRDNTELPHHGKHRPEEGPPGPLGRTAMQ
How it was run: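 His-hSHIP1 (15–20 ng) was incubated with IP4 (50 μM final) and compound (0–300 μM final, from 10% ethanol solutions) in 20 mM Tris-HCl, 10 mM MgCl2 pH 7.5, 0.02% Tween 20 for 15 min at 37 °C. Released phosphate was read with Biomol Green at 650 nm. Activation is % increase over background, scored + (<50%), ++ (≥50% but <65%), +++ (≥65%).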

Compound: CC1(C)CCC[C@]2(C)[C@H]3COc4c(O)cc(O)cc4[C@]3(C)CC[C@@H]12 [Compound No. 43, (1R,10R,11S,16S)-1,11,15,15-tetramethyl-8-oxatetracyclo[8.8.0.0^2,7.0^11,16]octadeca-2,4,6-triene-4,6-diol]
- Scoring: inhibition of passive cutaneous anaphylaxis [1]: + (1-30% inhibition)
- Scoring: percent (%) activation of His-hSHIP1 enzyme [2]: + (<50%)

— patent US8101605B2, “SHIP1 modulators and methods related thereto” (Aquinox Pharmaceuticals Inc., priority 2009, dated 2012)
